Data as given in ChEMBL document CHEMBL1152680, “Peptide inhibitors of HIV-1 integrase: from mechanistic studies to improved lead compounds” (Bioorg Med Chem, 2009).
Activity calls are given as the source filed them. The calls are words filed in the database; no cut-off is given here.

Assays:
[1] = Cellular uptake in cytoplasm of human HeLa cells at 10 uM after 2 hrs by confocal microscopy; assay type: ADME, cell-based
[2] = biological target: Human immunodeficiency virus type 1 integrase (Human immunodeficiency virus 1) (UniProt Q7ZJM1); assay: Binding affinity to dimeric histidine-tagged HIV1 full length integrase by analytical gel filtration
[3] = biological target: T1, Human immunodeficiency virus type 1 integrase (Human immunodeficiency virus 1, UniProt Q7ZJM1); assay: Binding affinity to histidine-tagged HIV1 full length integrase by fluorescence anisotropy
[4] = biological target: Human immunodeficiency virus type 1 integrase (Human immunodeficiency virus 1) (UniProt Q7ZJM1); assay: Ratio of compound to IN1 activity for inhibition of viral DNA binding to histidine-tagged HIV1 full length integrase
[5] = test system: Human immunodeficiency virus 1; assay: Antiviral activity against HIV1 infected in human SupT1 cells assessed as change in total amount of viral DNA at 0.5 to 62.5 uM treated 2 hrs before viral infection measured after 24 hrs by real time PCR analysis; assay type: functional, organism-based; details: SUP-T1
[6] = biological target: Human immunodeficiency virus type 1 integrase (Human immunodeficiency virus 1) (UniProt Q7ZJM1); assay: Inhibition of integration activity of histidine-tagged HIV1 full length integrase at enzyme to peptide molar ratio of 1:50; details: concentration not given here
[7] = Cellular uptake in nucleus of human HeLa cells at 10 uM after 2 hrs by confocal microscopy; assay type: ADME, cell-based
[8] = biological target: Human immunodeficiency virus type 1 integrase (Human immunodeficiency virus 1) (UniProt Q7ZJM1); assay: Inhibition of viral DNA binding to dimeric histidine-tagged HIV1 full length integrase treated for 20 mins before addition of fluorescein-labeled viral LTR DNA by fluorescence anisotropy
[9] = biological target: Human immunodeficiency virus type 1 integrase (Human immunodeficiency virus 1) (UniProt Q7ZJM1); assay: Binding affinity to HIV1 integrase catalytic core domain (118-132) by ELISA
[10] = biological target: Human immunodeficiency virus type 1 integrase (Human immunodeficiency virus 1) (UniProt Q7ZJM1); assay: Binding affinity to HIV1 integrase DNA binding domain (240-260) by ELISA
[11] = biological target: Human immunodeficiency virus type 1 integrase (Human immunodeficiency virus 1) (UniProt Q7ZJM1); assay: Inhibition of histidine-tagged HIV1 full length integrase assessed as inhibition of viral DNA integration into human SupT1 cellular genome at 62.5 uM treated 2 hrs before viral infection measured after 24 hrs by real time PCR analysis; assay type: cell-based
[12] = test system: Human immunodeficiency virus 1; assay: Antiviral activity against HIV1 infected in human TZM-bl cells assessed as inhibition of viral replication at 62.5 uM treated 2 hrs before viral infection measured after 2 days by MAGI assay; assay type: functional; details: Human immunodeficiency virus 1, TZM-bl
[13] = test system: Human immunodeficiency virus 1; assay: Antiviral activity against HIV1 infected in human TZM-bl cells assessed as inhibition of viral replication treated 2 hrs before viral infection; assay type: functional, organism-based
[14] = biological target: Human immunodeficiency virus type 1 integrase (Human immunodeficiency virus 1) (UniProt Q7ZJM1); assay: Binding affinity to HIV1 integrase catalytic core domain (94-112) by ELISA
[15] = biological target: Human immunodeficiency virus type 1 integrase (Human immunodeficiency virus 1) (UniProt Q7ZJM1); assay: Inhibition of integration activity of histidine-tagged HIV1 full length integrase at 76 uM
[16] = biological target: Human immunodeficiency virus type 1 integrase (Human immunodeficiency virus 1) (UniProt Q7ZJM1); assay: Binding affinity to HIV1 integrase catalytic core domain (70-84) by ELISA
[17] = biological target: T1, Human immunodeficiency virus type 1 integrase; assay: Binding affinity to tetrameric histidine-tagged HIV1 full length integrase by fluorescence anisotropy
[18] = Solubility of the compound; assay type: physicochemical
[19] = biological target: Human immunodeficiency virus type 1 integrase (Human immunodeficiency virus 1) (UniProt Q7ZJM1); assay: Inhibition of viral DNA binding to tetrameric histidine-tagged HIV1 full length integrase treated for 20 mins before addition of fluorescein-labeled viral LTR DNA by fluorescence anisotropy
[20] = biological target: Human immunodeficiency virus type 1 integrase (Human immunodeficiency virus 1) (UniProt Q7ZJM1); assay: Binding affinity to tetrameric histidine-tagged HIV1 full length integrase by analytical gel filtration

T1 sequence (Q7ZJM1 whole entry): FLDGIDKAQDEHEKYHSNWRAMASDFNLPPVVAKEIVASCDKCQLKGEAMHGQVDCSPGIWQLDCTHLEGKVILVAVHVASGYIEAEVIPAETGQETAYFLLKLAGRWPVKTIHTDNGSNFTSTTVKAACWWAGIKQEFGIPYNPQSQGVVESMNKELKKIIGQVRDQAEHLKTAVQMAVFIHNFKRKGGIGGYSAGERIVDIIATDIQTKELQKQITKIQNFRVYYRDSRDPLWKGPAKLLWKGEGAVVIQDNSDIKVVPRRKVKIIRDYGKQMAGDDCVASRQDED
Chain of Human immunodeficiency virus type 1 integrase (Human immunodeficiency virus 1) (Q7ZJM1 as listed by the source): as the sequence (Q7ZJM1 whole entry) above

Substance | Drug uptake [1] | Activity [2] | Kd ([3]; read-out: Kd) | Ratio [4] | Activity [5] | inhibition [6] | Drug uptake [7] | inhibition [8] | Activity [9] | Activity [10] | inhibition [11] | inhibition at 62.5 µM [12] | inhibition [13] | Activity [14] | inhibition [15] | also measured
H-WFVLLTITVLR-OH [WFVLLTITVLR] | Active | Active | 1800 nM | 2 | inactive | 24% | Active | Active | Active | Active | 23% | 29% | Dose-dependent effect |  |  | 
H-WITVLR-OH |  |  |  |  |  |  |  | Active |  |  |  |  | Dose-dependent effect |  |  | Kd [3]: Not Active
H-WQCLTLTHRG-OH | Active | Active | 1700 nM | 2 | inactive |  | Active | Active | Active |  | 64% | 68% | Dose-dependent effect | Active | 73% | 
H-WQCLTLTHRGFVLLTITVLR-OH |  |  |  |  | inactive |  |  |  | Active | Active | 63% | 70% | Dose-dependent effect | Active | 77% | Activity [16]: Active; Kd [17]: 8700 nM; solubility [18]: Soluble; inhibition [19]: Active; Activity [20]: Active
H-WQSLTLTHRG-OH | Active |  | 1200 nM |  | inactive | 62% | Active | Active |  |  | 51% | 60% | Dose-dependent effect |  |  | 
